Experimental data from patent US20090076029A1 (Palatin Technologies, Inc., priority 2007, published 2009).
Where two headings read alike, the source gives them in different places.

Assays:
[1] = molecular target: T1, MC1-R; assay: Competitive inhibition assay using [I125]-NDP-α-MSH, MC1-R membranes; format: binding, mouse
T1 construct: other: 1 μM compound

[2] = molecular target: T2, hMC4-R; assay: Competitive inhibition assay using [I125]-NDP-α-MSH, hMC4-R membranes; format: binding, human
T2 construct: expressed in transfected cells; host or cells: HEK-293

[3] = test system: T3, MC1-R; assay: cAMP functional assay, B-16 mouse melanoma cells expressing MC1-R; format: cell-based; details: cAMP assay at 1 μM
T3 construct: from B-16 mouse melanoma cells (containing MC1-R); endogenous in cells; host or cells: B-16 mouse melanoma cells

[4] = test system: T4, MC4-R; format: cell-based
T4 construct: expressed in transfected cells; host or cells: HEK-293
Method: Antagonists of AgRP. […] The experimental protocol was essentially as described above for the antagonist assay. […] HEK-293 cells expressing MC4-R were suspended in 10 mM HEPES (pH 7.5) and Earle's Balanced Salt Solution with the phosphodiesterase inhibitor IBMX. The cells were pre-incubated for 30 minutes with the test compounds over a concentration of 0.5 nM to 5000 nM. The cells were then treated with AgRP (100 nM) and incubated for 1 hour. Cells were lysed and cAMP was measured using an EIA kit (Amersham).

[5] = test system: T5, mutant L250Q MC4-R; assay: Reversal of AgRP inverse agonism in cells expressing mutant L250Q MC4-R; format: cell-based, human; details: HEK-293 cells expressing mutant L250Q MC4 receptors; FIG. 8
T5 construct: expressed in transfected cells
Description: Expression of recombinant mutant hMC4-R in which a glutamine is exchanged for leucine in amino acid position 250 (L250Q) results in production of increased levels of cAMP in the absence of agonist (Vaisse C. et al., Melanocortin-4 receptor mutations are a frequent and heterogeneous cause of morbid obesity. J Clin Invest 106:253-262, 2000). In some cases, reversal of the inverse agonist activity of AgRP was examined in cells that expressed mutant L250Q MC4-R coupled to a high level of constitutive activity. FIG. 8 illustrates the results obtained with the mutant L250Q MC4-R system.

[6] = test system: T4, MC4-R; format: cell-based; remark: listed apart in the source
Description: Assay for Antagonists of AgRP in HEK-293/MC4-R Cells stimulated with Forskolin. […] AgRP causes a decrease in the basal adenylyl cyclase activity only to the extent of 40-50%. Even though the AgRP-induced decrease in cAMP levels is substantial, conventional assay methods, such as those described above, have limited sensitivity, precluding detecting small changes that are reversed by certain antagonists to AgRP. This limitation was circumvented by the use of a non-specific activator, forskolin, which directly activates adenylyl cyclase activity and raises cyclic AMP levels. Forskolin, a cell permeable diterpenoid initially isolated from Coleus forskohlii, has the ability to stimulate adenylyl cyclase activity and increase intracellular cAMP, thus activating cAMP-dependent protein kinase and other cAMP receptor proteins. See, e.g., Seamon, K. B., Daly, J. W. Forskolin: a unique diterpene activator of cyclic AMP-generating system. J. Cyclic Nucleotide Res. 7(4):201-24, 1981; Fradkin, J. E., Cook, G. H., Kilhoffer, M. C., Wolff, J. Forskolin stimulation of thyroid adenylate cyclase and cyclic 3′,5′-adenosine monophosphate accumulation. Endocrinology 111 (3):849-56, 1982; Barber, R., Goka, T. J. Adenylate cyclase activity as a function of forskolin concentration. J. Cyclic Nucleotide Protein Phosphor. Res. 10(1):23-9, 1985; and Laurenza, A., Sutkowski, E. M., Seamon, K. B. Forskolin: a specific stimulator of adenylyl cyclase or a diterpene with multiple sites of action? Trends Pharmacol. Sci. 10(11):442-7, 1989. […] The EC50 value was about 5 μM. AgRP inhibited the forskolin-induced response by 65% at a concentration of 10 nM. The difference in forskolin stimulated response and the inhibition due to AgRP in the cAMP levels was exploited to screen compounds for their ability to antagonize AgRP inhibition and […] levels of cAMP accumulation.
Experimental details for assays included incubating cells with the test compound in the presence of the inverse agonist AgRP with the extent of reversal of the AgRP effect measured by following the increase in the levels of intracellular cAMP. HEK-293 cells expressing MCR-4 were suspended in 10 mM HEPES/Earle's Balanced Salt Solution at pH 7.5 with the phosphodiesterase inhibitor IBMX, and pre-incubated for 30 minutes with the compounds (0.5-5000 nM). The cells were then treated with AgRP (10 nM) and incubated further for 30 minutes. The cells were then treated with forskolin (10 μM) and incubated for an additional 60 minutes. Cells were lysed and cAMP was measured by EIA kit (Amersham).

[7] = MC4-R membranes, Table 1, read-out: Ki (nM) I125-NPD-α-MSH
[8] = read-out: Ki (nM) (NDP-α-MSH) MC4-R

Compound | Ki [1] | Inhibition at 1 μM (NDP-α-MSH) MC1-R ([1]; 1 μM compound) | Ki [2, 7] | Ki [2, 8] | functional status at MC1-R [3] | activity on AgRP induced inverse agonism [4] | effect on AgRP-induced decrease in cAMP levels [5] | effect on AgRP inhibition of forskolin-stimulated cAMP levels [6] | attenuation of binding of α-MSH and AgRP to MC4-R ([2]; both ligands (NDP-α-MSH and AgRP), summary)
CC(C)C[C@@H]1CN(C(=O)[C@H](N)Cc2ccc(Cl)cc2Cl)[C@@H](CCCNC(=N)N)CN1CCc1ccc2ccccc2c1 [Example 4, N-{3-[1-[2(R)-Amino-3-(2,4-dichloro-phenyl)-propionyl]-5(R)-isobutyl-4-(2-naphthalen-2-yl-ethyl)-piperazin-2(S)-yl]-propyl}-guanidine] | 1360 nM | 21% | 5 nM | 5 nM | no intrinsic activity (intrinsic activity below 0.1 (10%) is classified as inactive or having no intrinsic activity) | antagonistic activity | reversal of AgRP-induced decrease in the levels of cAMP |  | 
CC(=O)N[C@H](Cc1ccc(C)cc1C)C(=O)N1C[C@@H](C)N(CCc2ccc3ccccc3c2)C[C@@H]1CCCNC(=N)N [Example 26, N-{1(R)-(2,4-Dimethyl-benzyl)-2-[2(S)-(3-guanidino-propyl)-5(R)-methyl-4-(2-naphthalen-2-yl-ethyl)-piperazin-1-yl]-2-oxo-ethyl}-acetamide] |  |  | 1 nM | 1 nM |  |  |  | reversal of AgRP inhibition | 
Cc1ccc(C[C@@H](N)C(=O)N2C[C@@H](C)N(CCc3ccc4ccccc4c3)C[C@@H]2CCCNC(=N)N)c(C)c1 [Example 28, N-{3-[1-[2(R)-Amino-3-(2,4-dimethyl-phenyl)-propionyl]-5(R)-methyl-4-(2-naphthalen-2-yl-ethyl)-piperazin-2(S)-yl]-propyl}-guanidine] |  |  |  |  |  |  |  | reversal of AgRP inhibition | attenuate the binding of both α-MSH and AgRP to MC4-R
